Data from EPA's ToxValDB 9.5.
Where “and” joins values, the source holds several entries; their conditions need not be identical. Equal entries are not always repeated.

Experiments:
Canidae [1] = settings: oral, Dog Other
Canidae [2] = settings: subchronic; oral; M/F; Dog Other; internal hemorrhage, mortality
Rattus norvegicus [3] = settings: subchronic, oral, drinking water, Fischer 344
Oryctolagus sp. [4] = settings: subchronic, inhalation
Rattus norvegicus [5] = system: Rattus norvegicus
Mus musculus [6] = system: Mus musculus
Oryctolagus sp. [7] = settings: acute
Cavia porcellus = settings: acute, Guinea Pig; for LD50: oral
Rattus norvegicus [8] = settings: Hershberger; duration: 10 days; oral; gavage; Sprague-Dawley; inactive + Negative + Negative + neither + see comment
Rattus norvegicus [9] = settings: subchronic; duration: 90 days; oral; gavage; Kidney: Increased weight + Kidney: Nephrotoxicity + Liver: Increased weight
Rattus norvegicus [10] = system: Rattus norvegicus; remark: listed apart in the source
Homo sapiens = settings: clinical; duration: 4 hours; inhalation; M/F; neurological
Rattus norvegicus [11] = settings: repeat dose other; oral
Mus musculus [12] = settings: oral, drinking water
Mus musculus [13] = settings: chronic; oral; M/F; Brain cell vacuolization + liver cell alterations in females
Rattus norvegicus [14] = settings: subchronic; duration: 2 months; inhalation; unknown; Wistar; respiratory
[15] = M/F, New Zealand, reduced testes weight, seminiferous tubule degeneration and reduced hemoglobin
[16] = short-term, duration: 9 days, oral, gavage, Fischer 344
[17] = subchronic, duration: 3 months, oral, diet, Wistar
[18] = subchronic, duration: 3 months, oral, gavage, Fischer 344
[19] = short-term, duration: 11 days, oral, diet, B6C3F1
[20] = subchronic, duration: 3 months, oral, gavage, B6C3F1
[21] = subchronic, oral, drinking water, M/F, nephropathy
[22] = reproduction developmental, oral, drinking water, M/F, neurodevelopmental effects

Question: For `CNC(=O)ON=C(CSC)C(C)(C)C`, which NOAEL (Canidae [1]; short-term, duration: 8 days, Cholinesterase: Decreased cholinesterase activity) is on record?
Answer: Its NOAEL is 0.025 mg/kg-day.

Question: `O=C(O)CCCOc1ccc(Cl)cc1Cl` [2,4-Dichlorophenoxybutyric acid] was tested. Which NOAEL (Canidae [1]; subchronic, duration: 90 days, diet, Cardiovascular system: Hemorrhage + Whole body: Increased mortality) did it give?
Answer: Its NOAEL is 8 mg/kg-day.

Question: What about the LOAEL (Canidae [2]) of the same compound?
Answer: Its LOAEL is 25 mg/kg-day.

Question: And the NOAEL (Canidae [2])?
Answer: Its NOAEL is 8 mg/kg-day.

Question: Which NOEL (Rattus norvegicus [3]; F, Deaths + Clinical Observation: Emaciation Diarrhea Abnormal posture Tremors + Body Weight Changes: decrease + Water Consumption: decrease + …) does the source give for `CCOCCO` [2-Ethoxyethanol] here?
Answer: The NOEL was 122 mg/kg-day.

Question: What about the NOEL (Rattus norvegicus [3]; M/F, Deaths + Clinical Observation: Emaciation Diarrhea Abnormal posture Tremors + Body Weight Changes: decrease + Water Consumption: decrease + …) of the same compound?
Answer: Its NOEL is under 190 mg/kg-day.

Question: What about the LOAEL (Oryctolagus sp. [4]; [15]) of the same compound?
Answer: Its LOAEL is 1480 mg/m3.

Question: What about the NOAEL (Oryctolagus sp. [4]; [15]) of the same compound?
Answer: The NOAEL was 380 mg/m3.

Question: Which results are given for `CCCCC(CC)CO` (stereo not given) [2-Ethyl-1-hexanol]?
Answer: LD50 (Rattus norvegicus [5]; acute, dermal): > 3000 mg/kg; LD50 (Rattus norvegicus [5]; acute, oral, gavage, albino): 7000 mg/kg; NOAEL (Rattus norvegicus [5]; developmental, dermal, occlusive, Fischer 344): > 2520 mg/kg-day; NOAEL (Rattus norvegicus [5]; developmental, duration: 10 days, dermal, occlusive, Fischer 344): > 2520 mg/kg-day; NOAEL (Rattus norvegicus [5]; developmental, oral, gavage, Wistar): 650 mg/kg-day; NOAEL (Rattus norvegicus [5]; repeat dose other, inhalation, Wistar): 0.648 mg/L and 0.32 mg/L; NOAEL (% diet) (Rattus norvegicus [5]; repeat dose other, oral, diet, Fischer 344): 0.46; LOAEL (Rattus norvegicus [5]; repeat dose other, oral, gavage, Fischer 344): 100 mg/kg-day; NOAEL (Rattus norvegicus [5]; reproduction developmental, duration: 10 days, oral, gavage, F, Wistar): 130 mg/kg-day; NOAEL (Rattus norvegicus [5]; reproduction developmental, oral, gavage, F, Wistar): 130 mg/kg-day; NOAEL (Rattus norvegicus [5]; short-term, duration: 9 days, oral, drinking water, Fischer 344): 636 ppm; LOAEL (Rattus norvegicus [5]; [16]): 100 mg/kg-day; NOAEL (Rattus norvegicus [5]; [16]): 83 mg/kg-day; NOAEL (Rattus norvegicus [5]; short-term, duration: 14 days, inhalation, Wistar): 0.32 mg/L; LOAEL (Rattus norvegicus [5]; short-term, duration: 21 days, oral, gavage, Fischer 344): 100 mg/kg-day; LOAEL (% diet) (Rattus norvegicus [5]; [17]): 0.25; NOAEL (% diet) (Rattus norvegicus [5]; [17]): 0.05; LOAEL (Rattus norvegicus [5]; [18]): 250 mg/kg-day; NOAEL (Rattus norvegicus [5]; [18]): 125 mg/kg-day and ≤ 250 mg/kg-day; NOAEL (Rattus norvegicus [5]; subchronic, duration: 13 weeks, oral, gavage): 250 mg/kg-day; NOAEL (Mus musculus [6]; developmental, duration: 18 days, oral, diet, CD1): > 191 mg/kg-day; NOAEL (% diet) (Mus musculus [6]; repeat dose other, oral, diet, B6C3F1): ≥ 0.44 and ≤ 0.66; NOAEL (Mus musculus [6]; reproduction developmental, duration: 18 days, oral, diet, F, CD1): > 191 mg/kg-day; NOAEL (Mus musculus [6]; reproduction developmental, oral, diet, F, CD1): > 191 mg/kg-day; LOAEL (Mus musculus [6]; [19]): ≥ 1000 mg/kg-day and ≤ 1500 mg/kg-day; LOAEL (% diet) (Mus musculus [6]; [19]): ≥ 0.66 and ≤ 1.32; NOAEL (% diet) (Mus musculus [6]; [19]): ≥ 0.44 and ≤ 0.66; NOAEL (Mus musculus [6]; short-term, duration: 11 days, oral, diet, F, B6C3F1): 2650 mg/kg-day and 1000 mg/kg-day; NOAEL (Mus musculus [6]; short-term, duration: 11 days, oral, gavage, B6C3F1): 100 mg/kg-day; LOAEL (Mus musculus [6]; [20]): ≥ 250 mg/kg-day and ≤ 500 mg/kg-day; NOAEL (Mus musculus [6]; [20]): ≥ 125 mg/kg-day and ≤ 250 mg/kg-day; NOAEL (Mus musculus [6]; subchronic, duration: 3 months, oral, gavage, F, B6C3F1): 250 mg/kg-day; NOAEL (Mus musculus [6]; subchronic, duration: 3 months, oral, gavage, M, B6C3F1): 125 mg/kg-day; LD50 (Oryctolagus sp. [7]; dermal): > 2600 mg/kg and 1980 mg/kg; LD50 (Oryctolagus sp. [7]; oral): 1180 mg/kg and 1470 mg/kg; LD50 (Cavia porcellus): ≥ 1220 mg/kg and ≤ 2820 mg/kg; LD50 (Cavia porcellus; gavage): 600 mg/kg

Question: What does the source list for `N#CCCSCCC#N` [3,3'-Thiodipropionitrile]?
Answer: LC50 (Rattus norvegicus [5]; acute, inhalation): > 88.9 mg/m3; LC50 (Mus musculus [6]; acute, inhalation): > 88.9 mg/m3; LD50 (Mus musculus [6]; acute, oral, gavage, albino): 3750 mg/kg; LC50 (Cavia porcellus; inhalation): > 88.9 mg/m3

Question: How did the NOEL (Rattus norvegicus [8]) turn out when `CC(C)=O` [Acetone] was run?
Answer: The NOEL was 1000 mg/kg-day.

Question: And the NOEL (Rattus norvegicus [3]; M/F, Body Weight Changes: decrease + Water Consumption: decrease + Hematology: WBC increase, Lymph increase, Hgb decrease, RBC decrease, MCH …)?
Answer: The NOEL was 380 mg/kg-day.

Question: And the NOEL (Rattus norvegicus [9])?
Answer: Its NOEL is 100 mg/kg-day.

Question: What about the LOAEL (Rattus norvegicus [10]; [21]) of the same compound?
Answer: Its LOAEL is 1700 mg/kg-day.

Question: And the NOAEL (Rattus norvegicus [10]; [21])?
Answer: The NOAEL was 900 mg/kg-day.

Question: What about the LOAEL (Homo sapiens) of the same compound?
Answer: Its LOAEL is 563 mg/m3.

Question: What about the LOAEL (Rattus norvegicus [11]) of the same compound?
Answer: The LOAEL was 50 mg/kg-day.

Question: What about the NOAEL (Rattus norvegicus [11]) of the same compound?
Answer: The NOAEL was 10 mg/kg-day.

Question: Which LOAEL (Mus musculus [12]; chronic, duration: 33 months, Brain: Cellular changes + Liver: Cellular changes) does the source give for `Nc1ccc(-c2ccc(N)cc2)cc1` [C.I. Azoic Diazo Component 112] here?
Answer: Its LOAEL is 2.7 mg/kg-day.

Question: And the LOAEL (Mus musculus [13])?
Answer: The LOAEL was 2.7 mg/kg-day.

Question: `O=CC(Cl)(Cl)Cl` [Chloral] was tested. Which LOAEL (Mus musculus [12]; subchronic, duration: 90 days, Liver: Effects) did it give?
Answer: Its LOAEL is 15.7 mg/kg-day.

Question: For `[O][Cl+][O-]` [Chlorine dioxide], which LOAEL (Rattus norvegicus [10]; [22]) is on record?
Answer: The LOAEL was 6 mg/kg-day.

Question: And the NOAEL (Rattus norvegicus [10]; [22])?
Answer: The NOAEL was 3 mg/kg-day.

Question: What about the LOAEL (Rattus norvegicus [10]; subchronic, duration: 60 days, inhalation, vascular congestion and peribronchial edema) of the same compound?
Answer: Its LOAEL is 2.76 mg/m3.

Question: And the LOAEL (Oryctolagus sp. [4]; duration: 45 days, Hemorrhagic alveoli and congested capillaries the lungs)?
Answer: Its LOAEL is 6.9 mg/m3.

Question: And the LOAEL (Rattus norvegicus [14])?
Answer: Its LOAEL is 2.76 mg/m3.
